Measurements taken from paper PMC12311729, “Probing the Mechanism of L‑DOPA 2,3-Dioxygenase Using Synthetic Derivatives of 3,4-Dihydroxyhydrocinnamic Acid” (ACS Omega, 2025).

How the values were obtained:
[1] = Determination of pKa values by spectrophotometric titration; conditions: for pK a value: first catecholic deprotonation, determined spectroscopically from pH 3 to 12.5
Method: A buffer system utilizing five different buffers was prepared to cover the pH range of 3.0 to 12.50. A Thermo Scientific Orion Star A211 pH meter was used to measure and determine the pH of each buffer. The pH meter was calibrated using three- and four-point calibration with pH values of 4.00, 7.01, and 10.01 and 4.00, 7.01, 10.01, and 12.00, respectively.
The buffer systems were prepared as previously described and included: NaOAc/HOAc buffers (C = 0.1 M; I = 0.1 M) were used to cover the pH range of 3.0 to 5.50. KH2PO4/K2HPO4 buffers (C = 0.05 M; I = 0.1 M) were used to cover the pH range of 6.00 to 8.00. CHES buffers (C = 0.05 M; I = 0.1 M) were used to cover the pH range of 8.50 to 10.50. Na2HPO4/Na3PO4 buffers (C = 0.05 M; I = 0.1 M) were used to cover the pH range of 11.00 to 12.00. KCl buffers (C = 0.1 M; I = 0.1 M) were used to cover the pH range of 12.00 to 12.50.
The absorbance spectra of the compounds were determined at each pH as previously described. Briefly, a stock solution was prepared for each compound by weighing 2 mg of the compound using a high-precision analytical balance. Each compound was then dissolved in DMSO at a concentration of 10 mM. A UV-transparent 96-well microplate (Corning clear acrylic 96-well UV plate with a UV-transparent flat bottom) was loaded with 196 μL of buffer solution and 4 μL of the catechol stock in each well to get a final concentration of 200 μM. DMSO (4 μL) was added to 196 μL of the appropriate buffer to produce a blank solution for each buffer.
The 96-well plate was loaded into the microplate reader and incubated at 30 °C and shaken for 10 min before the reading. Absorbance readings were completed by using a Synergy HTX 15032517 microplate reader. Each well was read at wavelengths from 210 to 600 nm with 2-nm increments for each scan over a duration of 60 min.
The data were analyzed as previously described. Raw UV-spectra scans were exported to the Excel program. They were first processed by subtracting the reading of the blank solutions from the reading of each compound at the corresponding wavelengths. […] Finally, the spectral difference between the pH 3.0 buffer and the spectra at all other pH values was plotted. Additionally, the spectral difference between the pH 4.0 buffer and the spectra at all other higher pH values was plotted. The wavelengths for the maximum positive and negative absorbance were determined by using the graphs of the spectral difference plots, both for the pH 3.0 and pH 4.0 spectral difference plots. The absolute maximum positive and total absorbance differences at these chosen wavelengths were plotted against the pH of each buffer. The data were imported into the Origin 6.0 program, and the pK a values were determined with a nonlinear regression using eq : 1 Absorbancetotal=εHA−εA−[10^(pH−pKa)]/1+10^(pH−pKa)×[St]
εHA is the extinction coefficients of the acid form of the compound, and εA ^– is the extinction coefficient of the base form of the compound (i.e., the minima and maxima of the absorbance difference curve, respectively), and [S t] is the total compound concentration.

[2] = Cyclic voltammetry (redox potentials on a GCE); type: physicochemical; conditions: for (E p)a Oxidation / (E p)c Reduction / E1/2 / Ipa/Ipc / ΔE p: GCE (d = 2 mm)
Text: Reduction and oxidation potentials were experimentally performed by cyclic voltammetry (CV) at biological pH 7.4, as previously described. All samples were run on a CH Instruments 600E Potentiostat in a one-compartment cell equipped with a three-electrode system arrangement. The three-electrode system included a saturated calomel electrode as the reference electrode, a platinum wire as the auxiliary electrode, and a glassy carbon electrode (GCE, d = 2 mm) as the working electrode. The GCE was polished between each sample scan with an aqueous slurry of alumina powder on a microcloth pad. The electrodes were rinsed with distilled water prior to the next scan. All scans were conducted under nitrogen for oxygen displacement and at room temperature (rt, 25 ± 1 °C). All samples were prepared as close to the scan as possible (approximately 2 min each). Each sample (5 mL) contained 0.1 mM catecholic substrate and 1 μM DMSO in 0.1 M phosphate buffer at a pH of 7.4 or 6.0. […] The cyclic voltammograms for the compounds at both pH 6.0 and 7.4 are available in Figures S40–S51.

[3] = molecular target: L-DOPA 2,3-dioxygenase from S. lincolnensis (LmbB1) (Streptomyces lincolnensis, UniProt Q54354); test: UV-visible steady-state assay of L-DOPA 2,3-dioxygenase (LmbB1); type: biochemical; conditions: for kSP, O2 (μM^-1 min^-1) at pH 7.5 relative to L-DOPA x 100 for LmbB1: percentage of the value for L-DOPA
Sequence of L-DOPA 2,3-dioxygenase from S. lincolnensis (LmbB1) (Q54354 entry or part of it): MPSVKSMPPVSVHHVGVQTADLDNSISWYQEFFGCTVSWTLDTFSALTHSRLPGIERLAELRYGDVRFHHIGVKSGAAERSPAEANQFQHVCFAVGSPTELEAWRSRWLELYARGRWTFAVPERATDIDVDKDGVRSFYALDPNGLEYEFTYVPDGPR
Method: (§1) Purified, reconstituted L-DOPA 2,3-dioxygenases were assessed for activity by monitoring the cleavage of catecholic substrates using UV–visible spectroscopy. 3,4-Dihydroxyhydrocinnamic acid (DHHCA, 3) was purchased from Sigma-Aldrich. 6-CyanoDHHCA (5) and 6-bromoDHHCA (4) were synthesized as described above.
(§2) Molecular oxygen (AirGas) was bubbled directly into the reaction buffer through a glass-bonded silica gas diffuser (Bubblemac Industries, Inc.) or as a gas mixture blended with air (AirGas). Solutions were bubbled with oxygen for several minutes prior to use and for the duration of the experiment. To determine the K M for oxygen (i.e., K MO2), L-DOPA 2,3-dioxygenases (0.25–4.0 μM) were reacted with a saturating concentration of the catecholic substrate DHHCA/6-X-DHHCA derivatives (2–10× the K M sufficient to achieve k cat) and various oxygen concentrations (21–100% or 270–1300 μM at 22 °C). The concentration of oxygen was varied by changing the percentage of oxygen in the blend using a galvanic oxygen sensor and oxygen monitor (AirGas) and then bubbling solutions, as described above. Molecular oxygen percentages were converted to molar concentrations using a reference temperature of 22 °C. The reaction of L-DOPA 2,3-dioxygenases with DHHCA/6-X-DHHCA derivatives as a function of oxygen concentration was followed by the appearance of the steady-state cleavage product by using UV–visible spectroscopy.
(§3) The extinction coefficients for steady-state cleavage products of DHHCA and synthetic 6-X-DHHCA derivatives were determined by reacting various concentrations of DHHCA/6-X-DHHCA derivatives at 22 °C with a 10-fold stoichiometric excess of enzyme (quantified by Fe^II–see Reconstitution) in 50 mM HEPES buffer with 154 mM NaCl at pH 7.5, bubbled with 100% oxygen to a final concentration of 780–910 μM, depending on the volume of oxygenated buffer that comprised the reaction (60–70%). Substrate solutions were prepared from authentic synthetic standards using an analytical balance, and reactions were run to completion as assessed by the appearance of the steady-state product. The λmax and extinction coefficients of DHHCA, 6-cyanoDHHCA, and 6-bromoDHHCA were determined herein as ε380 = 40 740 ± 820 M^–1cm^–1, ε385 = 33 256 ± 484 M^–1cm^–1, and ε380 = 35 282 ± 1190 M^–1cm^–1, respectively (Figure S52).
(§4) Steady-state kinetic data were obtained through a UV–visible spectroscopic assay. Initial rates were obtained from the slopes of the linear regions of the progress curves and plotted versus substrate concentration to yield a hyperbola, which was analyzed using the Michaelis–Menten expression and nonlinear least-squares fitting (NLSF) with Origin 6.0 (Microcal). Two possible derivations of the Michaelis–Menten expression were used: 1) the traditional expression y = k cat × x/(K M + x), where y is Rate/E 0 or the rate of product formation (μM/min) divided by the starting enzyme concentration (μM), x is substrate concentration (μM) and k SP (also known as k cat × K M ^–1)–that is, the second-order rate constant of enzyme and substrate–is extracted from the fitted constants; or 2) the alternative derivation that extracts k SP and k cat directly from the fit: y = (k SP × x)/((1 + k SP × x)/k cat), and where y is Rate/E 0 or the rate of product formation (μM/min) divided by the starting enzyme concentration (μM), x is substrate concentration (μM), k SP is equivalent to k cat×K M ^–1, and K M is extracted from k cat/k cat×K M ^–1.

[4] = molecular target: L-DOPA 2,3-dioxygenase from S. hygroscopicus jingganensis (ShjDDO) (Streptomyces hygroscopicus, UniProt H2JL11); test: UV-visible steady-state assay of L-DOPA 2,3-dioxygenase (ShjDDO); type: biochemical; conditions: for kSP, O2 (μM^-1 min^-1) at pH 7.5 relative to L-DOPA x 100 for ShjDDO: percentage of the value for L-DOPA
Sequence of L-DOPA 2,3-dioxygenase from S. hygroscopicus jingganensis (ShjDDO) (H2JL11 1-162): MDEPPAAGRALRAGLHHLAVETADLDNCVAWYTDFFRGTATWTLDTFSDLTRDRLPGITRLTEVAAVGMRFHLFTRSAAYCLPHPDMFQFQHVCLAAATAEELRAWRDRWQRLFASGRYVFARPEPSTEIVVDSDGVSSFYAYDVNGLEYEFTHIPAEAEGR
Method: as §1, §2, §3, §4

[5] = percentage of the value for L-DOPA

ratio of charge states (k1/k-1) predicted by pKa value and Henderson-Hasselbach equation ([1]; at pH 7.35): 1.44 | pK a value [1]: 7.51 ± 0.06 | pK a value ([1]; listed as 6-cyanoDHHCA): 7.51 | Catecholic pKa value relative to L-DOPA x 100 [1, 5]: 85% | (E p)a Oxidation ([2]; pH 6.0): 358 mV | (E p)c Reduction ([2]; pH 6.0): 260 mV | E1/2 ([2]; pH 6.0): 309 mV | Ipa/Ipc ([2]; pH 6.0): 3.92 | ΔE p ([2]; pH 6.0): 98 mV | (E p)a Oxidation ([2]; pH 7.4): 272 mV | (E p)c Reduction ([2]; pH 7.4): 147 mV | E1/2 ([2]; pH 7.4): 209.5 mV | Ipa/Ipc ([2]; pH 7.4): 1.96 | ΔE p ([2]; pH 7.4): 125 mV | E1/2 (mV) at pH 7.4 relative to L-DOPA x 100 [2, 5]: 104% | activity / turnover as substrate ([3]; LmbB1, aerobic reaction observed by UV–visible spectroscopy): measurable activity | kcat at 22 °C and 100% O2 saturation ([3]; S. lincolnensis enzyme, pH 7.5): 6.7 × 10^–4 ± 2.8 × 10 ^–5 sec^–1 | kSP,O2 × 10^2 at 22 °C ([3]; S. lincolnensis enzyme, values are kSP × 10^2): 1.4 × 10^–2 ± 3.0 × 10 ^–3 μM^–1 min^–1 | kSP catechol × 10^2 at 22 °C ([3]; S. lincolnensis enzyme, values are kSP × 10^2, kSP = kcat/KM): 3.1 × 10^–2 ± 3.9 × 10 ^–3 μM^–1 min^–1 | kSP, O2 (μM^-1 min^-1) at pH 7.5 relative to L-DOPA x 100 for LmbB1 ([3]; listed as 6-cyanoDHHCA): 0.02% | kSP, O2 (μM^-1 min^-1) at pH 7.5 relative to L-DOPA x 100 for LmbB1 ([3]; listed as 6-cyanoDHHCA (5)): < 0.1% | kcat at 22 °C and 100% O2 saturation ([4]; S. hygroscopicus jingganensis enzyme, pH 7.5): 1.1 × 10^–3 ± 1.0 × 10 ^–4 sec^–1 | kSP,O2 × 10^2 at 22 °C ([4]; S. hygroscopicus jingganensis enzyme, values are kSP × 10^2): 4.0 × 10^–2 ± 6.0 × 10 ^–3 μM^–1 min^–1 | kSP catechol × 10^2 at 22 °C ([4]; S. hygroscopicus jingganensis enzyme, values are kSP × 10^2, kSP = kcat/KM): 2.8 × 10^–2 ± 7.1 × 10 ^–3 μM^–1 min^–1 | activity / turnover as substrate ([4]; ShjDDO, aerobic reaction observed by UV–visible spectroscopy): measurable activity | kSP, O2 (μM^-1 min^-1) at pH 7.5 relative to L-DOPA x 100 for ShjDDO ([4]; listed as 6-cyanoDHHCA): 0.03% | kSP, O2 (μM^-1 min^-1) at pH 7.5 relative to L-DOPA x 100 for ShjDDO ([4]; listed as 6-cyanoDHHCA (5)): < 0.1%
Structure (SMILES): N#Cc1cc(O)c(O)cc1CCC(=O)O [6-CyanoDHHCA (5), 3-(2-cyano-4,5-dihydroxyphenyl) propanoic acid]
